{
  "source": "patent US20130052172A1",
  "about": "“METHODS FOR DIAGNOSING AND TREATING CARDIAC DEFECTS” (priority 2011, published 2013)",
  "key": {"[1]": {"test_system": "isolated hearts", "assay": "In vitro global ischemia/reperfusion of isolated perfused hearts, infarct size and recovery of LVDP", "design": "species or system rat", "description": "For in vitro ischemia/reperfusion studies, hearts were perfused retrogradely, as described previously in Baker, J. et al. (Am. J. Physiol. Heart Circ. Physiol., 2000), the entirety of which is incorporated herein by reference. Briefly, hearts were perfused with modified Krebs-Henseleit buffer (120 mM NaCl, 25 mM NaHCO3, 4.7 mM KCl, 1.2 mM KH2PO4, 1.20 mM MgSO4, 11 mM glucose, and 1.8 mM CaCl2) bubbled with 95% O2-5% CO2 for a 40-minute stabilization period and subjected to 25 minutes of global no-flow ischemia, followed by 180 minutes of reperfusion. Before use, all perfusion fluids were filtered through cellulose acetate membranes with a pore size of 5.0 μm to remove particulate matter. Hearts were kept in temperature-controlled chambers to maintain myocardial temperature at 37° C. A balloon connected to a pressure transducer was inserted into the left ventricle to monitor cardiac function. For some experiments, hearts were stabilized for 25 minutes and then perfused with vancomycin or a mixture of antibiotics for 15 minutes before ischemia/reperfusion. During the initial 40 minute reperfusion period, recovery of mechanical function was measured as left ventricular developed pressure (LVDP) under steady-state conditions and expressed as a percentage of preischemic LVDP. At the end of the 3 hour reperfusion period, hearts were processed and stained with 2,3,5-triphenyltetrazolium chloride dye for IS determination."}, "[2]": {"test_system": "metabolites known to be modified by intestinal microbiota", "assay": "Metabolomic mass spec analysis of blood metabolites", "format": "in vivo, rat", "conditions": "rats treated for 7 days", "from_the_text": "In this example, methods for assaying metabolite levels using mass spectrometry are described. Each sample received was accessioned into the Metabolon Laboratory Information Management System (LIMS) and was assigned by the LIMS a unique identifier, which was associated with the original source identifier only. This identifier was used to track all sample handling, tasks, results etc. The samples (and all derived aliquots) were bar-coded and tracked by the LIMS system. All portions of any sample were automatically assigned their own unique identifiers by the LIMS when a new task was created; the relationship of these samples was also tracked. All samples were maintained at −80° C. until processed.\nThe sample preparation process was carried out using the automated MicroLab STAR® system from Hamilton Company. Recovery standards were added prior to the first step in the extraction process for Quality Control (QC) purposes. […]\nThe LC/MS portion of the platform was based on a Waters ACQUITY UPLC and a Thermo-Finnigan LTQ mass spectrometer, which consisted of an electrospray ionization (ESI) source and linear ion-trap (LIT) mass analyzer. […] One aliquot was analyzed using acidic positive ion optimized conditions and the other using basic negative ion optimized conditions in two independent injections using separate dedicated columns. […]"}},
  "note": "Entries after “also recorded” stand apart in the source; their conditions may differ.",
  "data": [
    {"compound": "CN[C@H](CC(C)C)C(=O)N[C@H]1C(=O)N[C@@H](CC(N)=O)C(=O)N[C@H]2C(=O)N[C@H]3C(=O)N[C@H](C(=O)N[C@H](C(=O)O)c4cc(O)cc(O)c4-c4cc3ccc4O)[C@H](O)c3ccc(c(Cl)c3)Oc3cc2cc(c3O[C@@H]2O[C@H](CO)[C@@H](O)[C@H](O)[C@H]2O[C@H]2C[C@](C)(N)[C@H](O)[C@H](C)O2)Oc2ccc(cc2Cl)[C@H]1O", "note": "[vancomycin, Vancomycin]", "values": [
      {"measurement": "effect on IS when added directly to coronary perfusate", "setting": "[1]; 1 μM in perfusate, in vitro ischemia/reperfusion", "result": "no reduction in IS; also recorded: no effect on severity of myocardial infarction; also recorded: did not reduce IS in vitro"},
      {"measurement": "effect on infarct size of isolated hearts", "setting": "[1]; antibiotic added to the drinking water, then excluded from coronary circulation", "result": "reduced IS"},
      {"measurement": "decrease in IS", "setting": "[1]; antibiotic in drinking water, then excluded from coronary perfusate, in vitro ischemia/reperfusion", "result": 29, "unit": "%"},
      {"measurement": "time after treatment ceased at which cardioprotection was lost", "setting": "[1]; vancomycin in drinking water", "result": 3, "unit": "days"},
      {"measurement": "time of treatment within which cardioprotection was established", "setting": "[1]; vancomycin in drinking water", "result": "≤ 2", "unit": "days"},
      {"measurement": "metabolites of tryptophan, phenylalanine and tyrosine in blood", "setting": "[2]", "result": "decreased metabolites known to be modified by intestinal microbiota"},
      {"measurement": "phenyllactate in blood", "setting": "[2]", "result": "increased"}
    ]}
  ]
}
